Measurements: PMC4992173, “Divergent synthesis and identification of the cellular targets of deoxyelephantopins” (Nature Communications, 2016)

Target: T1, Cystathionine beta-synthase (CBS) (Homo sapiens, UniProt P35520)
T1 construct: endogenous in cells; host or cells: MCF7
Assay: In situ competitive profiling in live MCF7 cells (LFQ): CBS
Type: cell-based
Details: protein CBS, 4 h, then 10 µM 24c, n=4
From the text: In our efforts to determine the direct molecular targets of deoxyelephantopin we first performed a gel-based competitive in situ proteomic profiling assay[41] […] While the greater conformational flexibility of probe 24c could potentially lead to more promiscuous target engagement relatively to deoxyelephantopin, it was favoured based on the fact that an alkyne moiety appended to the rigid scaffold of deoxyelephantopin may hinder some of its interactions. MCF7 cells were pretreated with various concentrations of deoxyelephantopin for 4 h, harvested, lysed and the lysates were treated with the fluorogenic probe 24c-Cy3 (10 μM; Supplementary Fig. 10). […] Furthermore, cells were pretreated with 20 μM concentration of deoxyelephantopin or 24c and the proteomic profiles were compared (Fig. 6b, Supplementary Fig. 11). Multiple bands were detected that were equally competed by both DEP and 24c, thus again confirming that 24c can be used as an acceptable clickable analogue of deoxyelephantopin in pulldown assays. Having established the optimal labelling conditions by SDS–PAGE, we next carried out a mass spectrometry-based competitive profiling assay[42] coupled with the method of stable isotope labelling of amino acids in culture (SILAC)[43]. […]
Figure 6 Proteome-wide identification of deoxyelephantopin targets. […] Quantification was performed using label-free quantification (LFQ) method (n=4). […]

T1 sequence (P35520 whole entry): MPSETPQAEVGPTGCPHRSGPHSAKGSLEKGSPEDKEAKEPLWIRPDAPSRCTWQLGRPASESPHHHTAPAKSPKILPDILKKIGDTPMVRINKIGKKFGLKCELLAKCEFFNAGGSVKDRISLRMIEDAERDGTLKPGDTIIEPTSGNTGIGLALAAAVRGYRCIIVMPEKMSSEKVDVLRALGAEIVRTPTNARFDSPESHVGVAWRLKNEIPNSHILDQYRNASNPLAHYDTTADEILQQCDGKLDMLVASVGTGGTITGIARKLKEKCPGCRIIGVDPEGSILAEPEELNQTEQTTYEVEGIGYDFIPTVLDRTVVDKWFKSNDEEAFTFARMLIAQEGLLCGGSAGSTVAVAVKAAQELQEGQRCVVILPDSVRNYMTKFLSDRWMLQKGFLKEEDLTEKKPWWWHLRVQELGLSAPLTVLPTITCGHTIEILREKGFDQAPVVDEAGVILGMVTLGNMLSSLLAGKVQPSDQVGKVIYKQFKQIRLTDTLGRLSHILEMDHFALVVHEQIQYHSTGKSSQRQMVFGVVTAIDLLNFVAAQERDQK

C=C(C)C(=O)O[C@H]1CC2=C[C@@H](C/C(C)=C/[C@H]3OC(=O)C(=C)[C@H]13)OC2=O [deoxyelephantopin]
LFQ ratio 20 µM Deoxyelephantopin/DMSO with 24c: 0.00
